{"source": "patent US10681912B2", "about": "“Dispersion solution containing antibacterial ultrafine metal particles and method of producing the same” (TOYO SEIKAN GROUP HOLDINGS, LTD., priority 2013, dated 2020)", "assay": "SP values (solubility parameter)", "assay_type": "physicochemical", "settings": "δ=(E/V)^1/2", "from_the_text": "The SP value has the same meaning as the solubility parameter, and serves as a rough indication of mixing property between the liquids. If the cohesive energy is denoted by E and the molar volume by V, then the SP value δ is given by δ=(E/V)^1/2.", "data": [{"smiles": "CC(=O)CC(C)C", "note": "[Methylisobutyl ketone]", "values": [{"measurement": "SP Value", "value": 8.7}]}]}
